Data taken from patent US10457655B2, “Compounds and compositions for inhibition of FASN” (FORMA Therapeutics, Inc., priority 2013, dated 2019).

Each compound was assayed against FASN enzyme (Homo sapiens, UniProt P49327) (assay: Enzymatic Assay for FASN Inhibitors). Conditions: not given.
Format: biochemical
Procedure: Assays were performed in a 384-well black plate to measure the inhibition of FASN activities by individual compounds herein disclosed. An aliquot of 250 nL of compound was incubated with 10 μL of 40 nM FASN enzyme in assay buffer (50 mM HEPES pH=7.3, 0.5 mM EDTA, 1 mM Ascorbate, 100 mM NaCl and 0.04% TritonX-100) in each well at 25° C. for 60 minutes. After the plate was centrifuged briefly, 10 μL of substrate mix (20 μM Acetyl-CoA, 60 μM Malonyl-CoA, and 100 μM NADPH in assay buffer) was added to each well. The reaction was maintained at 25° C. for 90 minutes. The reaction was then quenched by adding 10 μL of 90 μM 7-Diethylamino-3-(4′-Maleimidylpheynyl)-4-Methylcoumarin in 50/50 Ethanol/H2O solution. The assay plate was incubated at 25° C. for 15 minutes, and read on a plate reader with excitation and emission wavelength at 360 nm and 530 nm, respectively. The IC50 of a given compound was calculated by fitting the dose response curve with a four parameter logistic equation.

Chain of FASN enzyme (P49327 whole entry): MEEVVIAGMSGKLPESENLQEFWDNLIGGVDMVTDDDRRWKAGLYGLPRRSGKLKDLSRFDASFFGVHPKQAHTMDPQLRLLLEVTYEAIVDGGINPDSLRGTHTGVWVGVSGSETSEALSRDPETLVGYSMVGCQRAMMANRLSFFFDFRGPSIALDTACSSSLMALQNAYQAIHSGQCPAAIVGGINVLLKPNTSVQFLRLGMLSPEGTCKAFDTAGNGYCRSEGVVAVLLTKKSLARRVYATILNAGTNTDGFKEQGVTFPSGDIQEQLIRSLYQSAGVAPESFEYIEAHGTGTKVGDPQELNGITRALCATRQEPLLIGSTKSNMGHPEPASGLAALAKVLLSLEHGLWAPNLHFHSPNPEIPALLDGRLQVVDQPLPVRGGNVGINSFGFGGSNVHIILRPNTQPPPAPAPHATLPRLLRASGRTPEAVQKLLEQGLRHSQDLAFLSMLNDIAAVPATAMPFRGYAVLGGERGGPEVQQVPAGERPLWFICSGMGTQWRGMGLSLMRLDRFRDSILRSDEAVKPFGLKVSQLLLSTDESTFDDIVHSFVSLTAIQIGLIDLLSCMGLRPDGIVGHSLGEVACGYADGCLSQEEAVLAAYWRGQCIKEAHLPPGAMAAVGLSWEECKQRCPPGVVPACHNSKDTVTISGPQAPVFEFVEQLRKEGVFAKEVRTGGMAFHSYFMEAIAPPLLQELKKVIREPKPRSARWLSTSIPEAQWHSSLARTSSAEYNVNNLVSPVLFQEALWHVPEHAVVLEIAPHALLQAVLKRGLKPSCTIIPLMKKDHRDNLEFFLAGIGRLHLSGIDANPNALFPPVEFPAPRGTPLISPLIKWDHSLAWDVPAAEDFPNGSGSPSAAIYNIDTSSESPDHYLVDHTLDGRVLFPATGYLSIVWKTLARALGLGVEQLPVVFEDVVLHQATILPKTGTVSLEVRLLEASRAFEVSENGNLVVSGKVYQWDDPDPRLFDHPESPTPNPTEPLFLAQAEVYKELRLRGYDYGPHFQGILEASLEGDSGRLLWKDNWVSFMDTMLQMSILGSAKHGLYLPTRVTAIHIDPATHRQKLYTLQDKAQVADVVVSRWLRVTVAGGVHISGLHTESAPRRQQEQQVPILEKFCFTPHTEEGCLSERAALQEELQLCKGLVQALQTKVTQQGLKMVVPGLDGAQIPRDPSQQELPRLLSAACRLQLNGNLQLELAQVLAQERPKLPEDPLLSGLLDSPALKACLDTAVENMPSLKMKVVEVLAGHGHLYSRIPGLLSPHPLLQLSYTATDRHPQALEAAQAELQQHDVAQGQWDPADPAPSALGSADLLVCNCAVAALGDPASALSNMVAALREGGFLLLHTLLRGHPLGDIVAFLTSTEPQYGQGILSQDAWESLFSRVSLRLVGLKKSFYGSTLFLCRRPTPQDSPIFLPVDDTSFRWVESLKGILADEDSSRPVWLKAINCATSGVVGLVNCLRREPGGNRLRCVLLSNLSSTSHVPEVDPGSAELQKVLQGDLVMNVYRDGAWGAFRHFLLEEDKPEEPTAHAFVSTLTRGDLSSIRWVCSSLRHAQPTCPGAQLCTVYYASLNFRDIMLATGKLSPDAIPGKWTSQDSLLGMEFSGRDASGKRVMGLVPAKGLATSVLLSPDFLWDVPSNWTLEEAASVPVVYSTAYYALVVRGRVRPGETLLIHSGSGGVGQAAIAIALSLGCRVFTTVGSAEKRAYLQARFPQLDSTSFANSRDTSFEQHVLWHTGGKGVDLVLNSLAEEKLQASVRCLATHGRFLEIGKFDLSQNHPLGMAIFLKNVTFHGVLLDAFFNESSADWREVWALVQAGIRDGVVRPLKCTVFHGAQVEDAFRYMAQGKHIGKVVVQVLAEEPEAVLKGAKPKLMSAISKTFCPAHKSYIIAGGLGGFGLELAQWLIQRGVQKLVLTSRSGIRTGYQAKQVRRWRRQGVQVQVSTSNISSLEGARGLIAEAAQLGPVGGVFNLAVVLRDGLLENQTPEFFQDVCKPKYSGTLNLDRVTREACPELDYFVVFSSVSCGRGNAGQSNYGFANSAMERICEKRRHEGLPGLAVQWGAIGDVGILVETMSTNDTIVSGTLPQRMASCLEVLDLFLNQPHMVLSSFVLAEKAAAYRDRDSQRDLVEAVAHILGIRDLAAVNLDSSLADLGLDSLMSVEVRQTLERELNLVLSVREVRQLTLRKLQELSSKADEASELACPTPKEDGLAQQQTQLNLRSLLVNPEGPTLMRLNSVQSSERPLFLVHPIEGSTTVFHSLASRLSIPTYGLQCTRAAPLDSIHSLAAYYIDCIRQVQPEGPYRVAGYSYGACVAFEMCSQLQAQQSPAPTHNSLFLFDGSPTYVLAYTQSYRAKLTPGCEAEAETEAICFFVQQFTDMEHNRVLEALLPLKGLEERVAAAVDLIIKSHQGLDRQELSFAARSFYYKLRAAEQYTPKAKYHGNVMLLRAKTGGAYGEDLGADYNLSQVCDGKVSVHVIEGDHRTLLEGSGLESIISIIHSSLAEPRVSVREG

Row | Structure (SMILES) | IC50 [nM]
1 | O=C(c1ccc(-c2ncc3cc(F)ccc3n2)cc1)N1CCN(C(=O)C2(O)CC2)CC1 [1-{4-[4-(6-fluoroquinazolin-2-yl)benzoyl]piperazine-1-carbonyl}cyclopropan-1-ol] | < 500
2 | C[C@@H]1CN(C(=O)C2(O)CC2)C[C@H](C)N1C(=O)c1ccc(-c2ccc3c(c2)ncn3C)cc1 | < 500
3 | CC1(c2cccc(-c3ccc(C(=O)N4CCN(C(=O)C5(O)CC5)CC4)cc3)c2)NC(=O)NC1=O (stereo not drawn) | < 500
4 | Cc1nn(C)c2ccc(-c3ccc(C(=O)N4CCN(C(=O)C5CCO5)CC4)cc3)cc12 (stereo not drawn) | < 500
5 | COc1ccc2c(c1)CN(c1ccc(C(=O)N3CCN(C(=O)C4(O)CC4)CC3)cc1)CC2 [1-{4-[4-(7-methoxy-1,2,3,4-tetrahydroisoquinolin-2-yl)benzoyl]piperazine-1-carbonyl}cyclopropan-1-ol] | < 500
6 | Cn1cnc2cc(-c3ccc(C(=O)N4CCN(C(=O)C5(O)CC5)CC4)c(F)c3)ccc21 [1-{4-[2-fluoro-4-(1-methyl-1H-1,3-benzodiazol-5-yl)benzoyl]piperazine-1-carbonyl}cyclopropan-1-ol] | < 500

The next lines start with the values.

Row | IC50 [nM] | Structure (SMILES)
7 | < 500 | Cc1nc2cc(-c3ccc(C(=O)N4CCN(C(=O)C5(O)CC5)CC4)cc3)ccc2[nH]1 [1-{4-[4-(2-methyl-1H-1,3-benzodiazol-5-yl)benzoyl]piperazine-1-carbonyl}cyclopropan-1-ol]
8 | < 500 | O=C(Nc1cccc(-c2ccc(C(=O)N3CCN(C(=O)C4(O)CC4)CC3)cc2)c1)C1CCCC1 [N-(3-{4-[4-(1-hydroxycyclopropanecarbonyl)piperazine-1-carbonyl]phenyl}phenyl)cyclopentanecarboxamide]
9 | < 500 | CN1C(=O)Cc2c(-c3ccc(C(=O)N4CCN(C(=O)C5(O)CC5)CC4)cc3)cccc21 [4-{4-[4-(1-hydroxycyclopropanecarbonyl)piperazine-1-carbonyl]phenyl}-1-methyl-2,3-dihydro-1H-indol-2-one]
10 | < 500 | Cn1cnc2cc(-c3ccc(C(=O)N4CCN(C(=O)C5(O)CC5)CC4)cc3Cl)ccc21 [1-{4-[3-chloro-4-(1-methyl-1H-1,3-benzodiazol-5-yl)benzoyl]piperazine-1-carbonyl}cyclopropan-1-ol]
11 | < 500 | Cn1ccc2cc(-c3ccc(C(=O)N4CCN(C(=O)C5(O)CC5)CC4)cn3)ccc21

Same assay, conditions: FASN enzymatic assay; Table 2-2

Row | IC50 [nM] | Structure (SMILES)
12 | 500 to 5000 | COc1ccc2nc(-c3ccc(C(=O)N4CCN(C(=O)C5(O)CC5)CC4)cc3)cn2c1 [1-({4-[(4-{6-methoxyimidazo[1,2-a]pyridin-2-yl}phenyl)carbonyl]piperazin-1-yl}carbonyl)cyclopropan-1-ol]
13 | 500 to 5000 | O=C(c1ccc(-c2nc3cc(F)ccc3[nH]2)cc1)N1CCN(C(=O)C2(O)CC2)CC1 [1-[(4-{[4-(5-fluoro-1H-1,3-benzodiazol-2-yl)phenyl]carbonyl}piperazin-1-yl)carbonyl]cyclopropan-1-ol]
14 | 500 to 5000 | O=C(c1cnc(-c2ccc3ncccc3c2)cn1)N1CCN(C(=O)C2(O)CC2)CC1 [1-[(4-{[5-(quinolin-6-yl)pyrazin-2-yl]carbonyl}piperazin-1-yl)carbonyl]cyclopropan-1-ol]

Same assay, conditions: FASN enzymatic assay; Table 2-3

Row | IC50 [nM] | Structure (SMILES)
15 | ≥ 5000 | COc1cnccc1-c1ccc(C(=O)N2CCN(C(=O)C3(O)CC3)CC2)cc1 [1-[(4-{[4-(3-methoxypyridin-4-yl)phenyl]carbonyl}piperazin-1-yl)carbonyl]cyclopropan-1-ol]
16 | ≥ 5000 | COc1c(Cl)ccc(-c2ccc(C(=O)N3CCN(C(=O)C4(O)CC4)CC3)cc2)c1Cl [1-[(4-{[4-(2,4-dichloro-3-methoxyphenyl)phenyl]carbonyl}piperazin-1-yl)carbonyl]cyclopropan-1-ol]
17 | ≥ 5000 | Cc1ccc(-c2ccc(C(=O)N3CCN(C(=O)C4(O)CC4)CC3)cc2)c(F)c1 [1-[(4-{[4-(2-fluoro-4-methylphenyl)phenyl]carbonyl}piperazin-1-yl)carbonyl]cyclopropan-1-ol]
18 | ≥ 5000 | Cn1ncc2cccc(-c3ccc(C(=O)N4CCN(C(=O)C5(O)CC5)CC4)cc3)c21 [1-[(4-{[4-(1-methyl-1H-indazol-7-yl)phenyl]carbonyl}piperazin-1-yl)carbonyl]cyclopropan-1-ol]
